For the experiment, the target named is human Nav1.8 (Homo sapiens, UniProt Q9Y5Y9). The experiment in a line: SyncroPatch384PE assay (automated patch clamp). To be noted: human Nav1.8/b3 CHO cells. It is filed as cell-based. In general terms: In patch-clamp work, channel activity is measured electrically.
[1] abbreviates: inactivated state block (P2 measurement), read-out: P2 IC50.
The mark [2] stands for this setting: resting state block (P1 measurement), read-out: P1 IC50.

Each structure is given as a SMILES string. Counter-ions that a name gives are not always drawn. Like-named read-outs stand apart in the source and are kept apart here.

Sequence of human Nav1.8 (Q9Y5Y9 whole entry): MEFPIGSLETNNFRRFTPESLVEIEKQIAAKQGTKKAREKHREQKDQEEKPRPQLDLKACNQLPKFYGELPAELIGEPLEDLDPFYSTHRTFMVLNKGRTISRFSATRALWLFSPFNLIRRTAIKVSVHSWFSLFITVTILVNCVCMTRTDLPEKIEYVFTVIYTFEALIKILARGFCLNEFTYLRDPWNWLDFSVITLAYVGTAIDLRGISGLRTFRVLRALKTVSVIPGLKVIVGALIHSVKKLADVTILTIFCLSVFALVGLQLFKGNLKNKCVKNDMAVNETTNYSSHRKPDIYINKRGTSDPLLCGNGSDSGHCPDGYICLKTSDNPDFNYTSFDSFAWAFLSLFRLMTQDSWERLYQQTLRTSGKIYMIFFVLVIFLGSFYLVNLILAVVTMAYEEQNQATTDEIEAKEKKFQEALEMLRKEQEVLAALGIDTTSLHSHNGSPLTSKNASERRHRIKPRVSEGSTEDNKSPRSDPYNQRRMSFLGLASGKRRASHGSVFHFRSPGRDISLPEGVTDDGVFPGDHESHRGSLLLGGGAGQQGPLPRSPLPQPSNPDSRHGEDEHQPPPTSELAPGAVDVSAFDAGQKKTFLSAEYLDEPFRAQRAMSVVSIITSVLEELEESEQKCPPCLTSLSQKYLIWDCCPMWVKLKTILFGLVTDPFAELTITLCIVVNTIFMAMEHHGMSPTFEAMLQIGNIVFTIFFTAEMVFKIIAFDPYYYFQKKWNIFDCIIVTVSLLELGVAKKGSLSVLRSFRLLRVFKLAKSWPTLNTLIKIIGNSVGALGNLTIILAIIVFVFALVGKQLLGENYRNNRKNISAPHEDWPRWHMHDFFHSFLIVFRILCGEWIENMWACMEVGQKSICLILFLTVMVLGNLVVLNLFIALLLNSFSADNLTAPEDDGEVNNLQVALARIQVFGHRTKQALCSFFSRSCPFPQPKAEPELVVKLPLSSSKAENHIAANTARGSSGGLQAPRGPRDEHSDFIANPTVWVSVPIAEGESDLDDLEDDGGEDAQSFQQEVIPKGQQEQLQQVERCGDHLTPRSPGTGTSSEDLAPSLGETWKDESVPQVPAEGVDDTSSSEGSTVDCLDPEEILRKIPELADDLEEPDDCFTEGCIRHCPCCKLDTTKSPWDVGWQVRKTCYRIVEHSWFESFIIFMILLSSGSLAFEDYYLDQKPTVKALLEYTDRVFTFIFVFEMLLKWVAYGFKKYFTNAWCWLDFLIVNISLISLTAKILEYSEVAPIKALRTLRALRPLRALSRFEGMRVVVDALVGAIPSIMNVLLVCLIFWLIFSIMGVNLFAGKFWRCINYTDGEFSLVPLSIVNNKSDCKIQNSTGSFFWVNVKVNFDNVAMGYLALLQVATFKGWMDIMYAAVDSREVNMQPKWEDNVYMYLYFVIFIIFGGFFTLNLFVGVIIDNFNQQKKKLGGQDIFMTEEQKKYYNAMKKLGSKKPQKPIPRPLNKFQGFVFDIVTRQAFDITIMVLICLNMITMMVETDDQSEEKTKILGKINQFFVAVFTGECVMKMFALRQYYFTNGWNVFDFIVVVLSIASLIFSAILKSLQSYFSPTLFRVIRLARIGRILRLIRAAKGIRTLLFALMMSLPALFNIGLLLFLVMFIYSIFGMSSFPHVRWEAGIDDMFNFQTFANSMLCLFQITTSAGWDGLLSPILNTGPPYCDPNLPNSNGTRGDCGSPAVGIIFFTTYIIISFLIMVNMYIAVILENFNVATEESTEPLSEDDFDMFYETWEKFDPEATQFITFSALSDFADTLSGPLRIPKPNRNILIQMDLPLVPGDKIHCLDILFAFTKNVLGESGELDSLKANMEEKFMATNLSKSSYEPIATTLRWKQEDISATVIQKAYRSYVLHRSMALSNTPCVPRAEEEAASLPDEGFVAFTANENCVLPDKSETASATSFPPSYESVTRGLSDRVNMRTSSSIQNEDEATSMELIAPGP

`Cc1c(C#N)cnc(N2CCCC(F)(F)CC2)c1C(=O)Nc1ccnc([S@](C)(=N)=O)c1` [Example 201, (R)-5-cyano-2-(4,4-difluoroazepan-1-yl)-4-methyl-N-(2-(S-methylsulfonimidoyl)pyridin-4-yl)nicotinamide]: the IC50 (in general, the concentration at which inhibition is half-maximal) is 5 to 50 nM under setting [1] and 5 to 50 nM under setting [2].

For `O=C(Nc1cc[nH]c(=O)c1)c1nnc(C(F)(F)F)cc1N1CCCC(F)(F)CC1` [Example 40, 4-(4,4-Difluoroazepan-1-yl)-N-(2-oxo-1,2-dihydropyridin-4-yl)-6-(trifluoromethyl)pyridazine-3-carboxamide], the IC50 under setting [1] is above 200 nM and the half-maximal inhibitory concentration (IC50) under setting [2] is above 200 nM.

As for `Cc1c(-c2cnn(C)c2)cnc(N2CCCC(F)(F)CC2)c1C(=O)Nc1cccc([S@@](C)(=O)=NC(=O)C(C)(C)N)c1` [Example 52, (R)-N-(3-(N-(2-amino-2-methylpropanoyl)-S-methylsulfonimidoyl)phenyl)-2-(4,4-difluoroazepan-1-yl)-4-methyl-5-(1-methyl-1H-pyrazol-4-yl)nicotinamide formate], the IC50 runs as follows: under setting [1], 5 to 50 nM; under setting [2], 5 to 50 nM.

Consider `Cc1ccnc(N2CCCC(F)(F)CC2)c1C(=O)Nc1cccc(S(C)(=N)=O)c1` (centres unmarked) [Example 105, 2-(4,4-difluoroazepan-1-yl)-4-methyl-N-(3-(S-methylsulfonimidoyl)phenyl)nicotinamide], for which the half-maximal inhibitory concentration (IC50) is, setting by setting: under setting [1], 50 to 100 nM; under setting [2], 50 to 100 nM.

Take `C[S@@](=N)(=O)c1cccc(NC(=O)c2cc(Cl)c(C(F)(F)F)cc2N2CCO[C@@H](C(F)(F)F)C2)c1` [Example 216, 5-chloro-N-(3-((R)—S-methylsulfonimidoyl)phenyl)-4-(trifluoromethyl)-2-((R)-2-(trifluoromethyl)morpholino)benzamide]: the IC50 under setting [1] fell in the range of 50 to 100 nM and the concentration for half-maximal inhibition (IC50) under setting [2] was in the range of 50 to 100 nM.

Consider `Cc1c(C(F)(F)F)nnc(N2CCCC(F)(F)CC2)c1C(=O)Nc1cccc([S@@](C)(=O)=NC(=O)CN)c1` [Example 177, (R)-3-(4,4-difluoroazepan-1-yl)-N-(3-(N-glycyl-S-methylsulfonimidoyl)phenyl)-5-methyl-6-(trifluoromethyl)pyridazine-4-carboxamide], for which the IC50 is at most 5 nM under setting [1] and at most 5 nM under setting [2].

For `Cc1c(-c2ccc(C#N)cc2)cnc(N2CCCC(F)(F)CC2)c1C(=O)Nc1cccc([S@](C)(=N)=O)c1` [Example 49, (R)-5-(4-cyanophenyl)-2-(4,4-difluoroazepan-1-yl)-4-methyl-N-(3-(S-methylsulfonimidoyl)phenyl)nicotinamide], the IC50 is at most 5 nM under setting [1] and at most 5 nM under setting [2].

With `Cc1c(-c2cnn(C)c2)cnc(N2CCCC(F)(F)CC2)c1C(=O)Nc1cccc([S@](C)(=N)=O)c1` [Example 45, (R)-2-(4,4-difluoroazepan-1-yl)-4-methyl-5-(1-methyl-1H-pyrazol-4-yl)-N-(3-(S-methylsulfonimidoyl)phenyl)nicotinamide], the half-inhibitory concentration (IC50) is 50 to 100 nM under setting [1] and 50 to 100 nM under setting [2].

Regarding `CS(=N)(=O)c1cc(NC(=O)c2cc(C(F)(F)F)nnc2N2CCCCCC2)ccn1` (centres unmarked) [Example 2, 3-(azepan-1-yl)-N-{2-[imino(methyl)oxo-λ^6-sulfanyl]pyridin-4-yl}-6-(trifluoromethyl)pyridazine-4-carboxamide], the IC50 was above 200 nM under setting [1] and above 200 nM under setting [2].

Consider `CNCCN=[S@](C)(=O)c1cccc(NC(=O)c2c(N3CCCC(F)(F)CC3)ncc(Br)c2C)c1` [Example 211, (R)-5-bromo-2-(4,4-difluoroazepan-1-yl)-4-methyl-N-(3-(S-methyl-N-(2-(methylamino)ethyl)sulfonimidoyl)phenyl)nicotinamide 2,2,2-trifluoroacetate], for which the 50% inhibitory concentration (IC50) under setting [1] was at most 5 nM and the IC50 under setting [2] was at most 5 nM.

`C[S@+]([O-])c1cc(NC(=O)c2cc(Cl)c(C(F)(F)F)cc2N2CCCC(F)(F)CC2)ccc1F` [Example 205, (S)-5-chloro-2-(4,4-difluoroazepan-1-yl)-N-(4-fluoro-3-(methylsulfinyl)phenyl)-4-(trifluoromethyl)benzamide]: the IC50 is, setting by setting: under setting [1], at most 5 nM; under setting [2], at most 5 nM.

Take `C[S@@](=N)(=O)c1cccc(NC(=O)c2cc(Cl)c(C(F)(F)F)cc2N2CCCC(F)(F)CC2)c1` [Example 77, (R)-5-chloro-2-(4,4-difluoroazepan-1-yl)-N-(3-(S-methylsulfonimidoyl)phenyl)-4-(trifluoromethyl)benzamide]: the IC50 is, setting by setting: under setting [1], at most 5 nM; under setting [2], at most 5 nM.

As for `Cc1c(-c2cccc(F)c2)cnc(N2CCCC(F)(F)CC2)c1C(=O)Nc1cccc([S@](C)(=N)=O)c1` [Example 110, (R)-2-(4,4-difluoroazepan-1-yl)-5-(3-fluorophenyl)-4-methyl-N-(3-(S-methylsulfonimidoyl)phenyl)nicotinamide], the IC50 reads like this: under setting [1], at most 5 nM; under setting [2], at most 5 nM.

For `Cc1c(-c2ccccc2)cnc(N2CCCC(F)(F)CC2)c1C(=O)Nc1cccc([S@](C)(=N)=O)c1` [Example 122, (R)-2-(4,4-difluoroazepan-1-yl)-4-methyl-N-(3-(S-methylsulfonimidoyl)phenyl)-5-phenylnicotinamide], the IC50 was at most 5 nM under setting [1] and at most 5 nM under setting [2].

Regarding `CNCC(=O)N=[S@](C)(=O)c1cccc(NC(=O)c2cc(Cl)c(C(F)(F)F)cc2N2CCCC(F)(F)CC2)c1` [Example 228, (R)-5-chloro-2-(4,4-difluoroazepan-1-yl)-N-(3-(S-methyl-N-(methylglycyl)sulfonimidoyl)phenyl)-4-(trifluoromethyl)benzamide], the IC50 reads like this: under setting [1], at most 5 nM; under setting [2], at most 5 nM.

Take `Cc1c(C#N)cnc(N2CCCC(F)(F)CC2)c1C(=O)Nc1cccc(S(C)(=N)=O)c1` (centres unmarked) [Example 97, 5-cyano-2-(4,4-difluoroazepan-1-yl)-4-methyl-N-(3-(S-methylsulfonimidoyl)phenyl)nicotinamide]: the IC50 by setting is: under setting [1], 5 to 50 nM; under setting [2], 5 to 50 nM.

For `Cc1c(-c2ccccc2F)cnc(N2CCCC(F)(F)CC2)c1C(=O)Nc1cccc(S(C)(=N)=O)c1` (centres unmarked) [Example 92, 2-(4,4-difluoroazepan-1-yl)-5-(2-fluorophenyl)-4-methyl-N-(3-(S-methylsulfonimidoyl)phenyl)nicotinamide], the half-inhibitory concentration (IC50) under setting [1] is at most 5 nM and the IC50 under setting [2] is at most 5 nM.

On to `O=C(Nc1cc[nH]c(=O)c1)c1nnc(C(F)(F)F)cc1N1CCCCCC1` [Example 36, 4-(Azepan-1-yl)-N-(2-oxo-1,2-dihydropyridin-4-yl)-6-(trifluoromethyl)pyridazine-3-carboxamide], for which the IC50 under setting [1] is above 200 nM and the IC50 under setting [2] is above 200 nM.

`CNCC(=O)N=[S@](C)(=O)c1cccc(NC(=O)c2c(N3CCCC(F)(F)CC3)ncc(-c3ccc(F)c(F)c3)c2C)c1` [Example 60, (R)-2-(4,4-difluoroazepan-1-yl)-5-(3,4-difluorophenyl)-4-methyl-N-(3-(S-methyl-N-(methylglycyl)sulfonimidoyl)phenyl)nicotinamide]: the IC50 runs as follows: under setting [1], at most 5 nM; under setting [2], at most 5 nM.

With `Cc1c(Br)cnc(N2CCCC(F)(F)CC2)c1C(=O)Nc1cccc([S@@](C)(=N)=O)c1` [Example 145, (S)-5-bromo-2-(4,4-difluoroazepan-1-yl)-4-methyl-N-(3-(S-methylsulfonimidoyl)phenyl)nicotinamide], the IC50 runs as follows: under setting [1], at most 5 nM; under setting [2], at most 5 nM.

For the compound `CNCC(=O)N=[S@](C)(=O)c1cccc(NC(=O)c2c(N3CCCC(F)(F)CC3)ncc(C#CC3CC3)c2C)c1` [Example 64, (R)-5-(cyclopropylethynyl)-2-(4,4-difluoroazepan-1-yl)-4-methyl-N-(3-(S-methyl-N-(methylglycyl)sulfonimidoyl)phenyl)nicotinamide], the half-maximal inhibitory concentration (IC50) was at most 5 nM under setting [1] and at most 5 nM under setting [2].

In the case of `Cc1cc(-c2cnn(C)c2)nc(N2CCCC(F)(F)CC2)c1C(=O)Nc1cccc([S@](C)(=N)=O)c1` [Example 151, (R)-2-(4,4-difluoroazepan-1-yl)-4-methyl-6-(1-methyl-1H-pyrazol-4-yl)-N-(3-(S-methylsulfonimidoyl)phenyl)nicotinamide], the half-inhibitory concentration (IC50) fell in the range of 100 to 200 nM under setting [1] and 100 to 200 nM under setting [2].

For the compound `CS(=O)(=O)c1cccc(NC(=O)c2nnc(C(F)(F)F)cc2N2CCCCCC2)c1` [Example 37, 4-(Azepan-1-yl)-N-(3-(methylsulfonyl)phenyl)-6-(trifluoromethyl)pyridazine-3-carboxamide], the half-maximal inhibitory concentration (IC50) runs as follows: under setting [1], above 200 nM; under setting [2], above 200 nM.

In the case of `Cc1c(-c2ccc(Cl)c(F)c2)cnc(N2CCCC(F)(F)CC2)c1C(=O)Nc1cccc([S@](C)(=N)=O)c1` [Example 166, (R)-5-(4-chloro-3-fluorophenyl)-2-(4,4-difluoroazepan-1-yl)-4-methyl-N-(3-(S-methylsulfonimidoyl)phenyl)nicotinamide], the IC50 is at most 5 nM under setting [1] and at most 5 nM under setting [2].

As for `Cc1nc(N2CCCC(F)(F)CC2)c(C(=O)Nc2cccc(S(=N)(N)=O)c2)cc1C(F)(F)F` (centres unmarked) [Example 121, 2-(4,4-difluoroazepan-1-yl)-6-methyl-N-(3-sulfamidimidoylphenyl)-5-(trifluoromethyl)nicotinamide], the IC50 under setting [1] is at most 5 nM and the IC50 under setting [2] is at most 5 nM.

As to `Cc1c(-c2cccc(F)c2)cnc(N2CCCC(F)(F)CC2)c1C(=O)Nc1cccc(S(C)(=N)=O)c1` (centres unmarked) [Example 82, 2-(4,4-difluoroazepan-1-yl)-5-(3-fluorophenyl)-4-methyl-N-(3-(S-methylsulfonimidoyl)phenyl)nicotinamide], the half-inhibitory concentration (IC50) under setting [1] is at most 5 nM and the IC50 under setting [2] was at most 5 nM.

With `Cc1c(C(N)=O)cnc(N2CCCC(F)(F)CC2)c1C(=O)Nc1cccc([S@](C)(=N)=O)c1` [Example 129, (R)-2-(4,4-difluoroazepan-1-yl)-4-methyl-N3-(3-(S-methylsulfonimidoyl)phenyl)pyridine-3,5-dicarboxamide], the IC50 is, setting by setting: under setting [1], above 200 nM; under setting [2], above 200 nM.

With `Cc1c(-c2cccc(F)c2)cnc(N2CCCC(F)(F)CC2)c1C(=O)Nc1cccc([S@@](C)(=N)=O)c1` [Example 111, (S)-2-(4,4-difluoroazepan-1-yl)-5-(3-fluorophenyl)-4-methyl-N-(3-(S-methylsulfonimidoyl)phenyl)nicotinamide], the half-maximal inhibitory concentration (IC50) under setting [1] was at most 5 nM and the IC50 under setting [2] is at most 5 nM.
